Experimental findings from patent US20120094829A1, “Active Compound Combinations Having Insecticidal and Acaricidal Properties” (BAYER CROPSCIENCE AG, priority 2009, published 2012) are described below.

Format in all cases: in vivo
The test system of experiment [1] is Myzus persicae. Description: Myzus persicae test (spray treatment of infested cabbage leaves). Conditions: single active compound; for Kill in % after 6d: 0.8 g/ha; for Kill in % after 1d: 4 g/ha. As for the experimental part: (§1) Solvents: 78 parts by weight of acetone • • 1.5 parts by weight of dimethylformamide
(§2) Emulsifier: 0.5 part by weight of alkylaryl polyglycol ether
(§3) To produce a suitable preparation of active compound, 1 part by weight of active compound is mixed with the stated amount of solvent and emulsifier, and the concentrate is diluted with emulsifier-containing water to the desired concentration.
Cabbage leaves (Brassica oleracea) which are heavily infested by the green peach aphid (Myzus persicae) are treated by spraying with the active compound preparation of the desired concentration.
After the desired period of time, the kill in % is determined. 100% means that all of the aphids have been killed; 0% means that none of the aphids have been killed. The kill rates determined are entered into Colby's formula (see above).

The subject of experiment [2] is Phaedon cochleariae larvae. Put plainly: Phaedon cochleariae larvae test (sprayed cabbage leaves). Particulars: single active compound. As for the experimental part: Phaedon cochleariae Larvae Test
as §1, §2, §3
Cabbage leaves (Brassica oleracea) are treated by spraying with the active ingredient formulation of the desired concentration and populated with larvae of the mustard beetle (Phaedon cochleariae) while the leaves are still moist.
After the desired period of time, the kill in % is determined. 100% means that all beetle larvae have been killed; 0% means that none of the beetle larvae have been killed. The kill rates determined are entered into Colby's formula (see above).

Experiment [3] deals with Tetranychus urticae. Description: Tetranychus urticae test (OP-resistant/spray treatment of bean leaf discs). Conditions: single active compound. As for the experimental part: Tetranychus urticae Test (OP-Resistant/Spray Treatment)
as §1, §2, §3
Discs of bean leaves (Phaseolus vulgaris) which are infested by all stages of the greenhouse red spider mite (Tetranychus urticae) are sprayed with the active compound preparation of the desired concentration.
After the desired period of time, the effect in % is determined. 100% means that all of the spider mites have been killed; 0% means that none of the spider mites have been killed.

For experiment [4], the system named is Spodoptera frugiperda. Description: Spodoptera frugiperda test (sprayed cabbage leaves). Conditions: 100 g/ha, single active compound. As for the experimental part:
Spodoptera frugiperda Test
as §1, §2, §3
Cabbage leaves (Brassica oleracea) are treated by being sprayed with the preparation of active compound of the desired concentration and are populated with larvae of the armyworm (Spodoptera frugiperda) while the leaves are still moist.
After the desired period of time, the kill in % is determined. 100% means that all caterpillars have been killed; 0% means that none of the caterpillars have been killed. The kill rates determined are entered into Colby's formula (see above).

For `O=C1C=C(N(Cc2ccc(Cl)nc2)CC(F)F)CO1` [compound (I-5), 4-{[(6-chloropyrid-3-yl)methyl](2,2-difluoroethyl)amino}furan-2(5H)-one], the “Kill in % after 6d” value is 30% in experiment [1] and 0% in experiment [3] (4 g/ha). The “Kill in % after 2d” value in experiment [2] (20 g/ha), in experiment [3] (4 g/ha) and in experiment [3] (20 g/ha) was 0% in each case.
In the case of `O=C1C=C(N(CCF)Cc2ccc(Cl)nc2)CO1` [compound (I-4), 4-{[(6-chloropyrid-3-yl)methyl](2-fluoroethyl)amino}furan-2(5H)-one], the “Kill in % after 6d” value in experiment [1], in experiment [4] and in experiment [3] (4 g/ha) was 0% in each case. In addition, in experiment [1], the “Kill in % after 1d” value turned out to be 20%. In addition, the results for the “Kill in % after 2d” value in experiment [2] (100 g/ha) and in experiment [3] (4 g/ha) were 33% and 0%, respectively.
Regarding `CCC(C)(C)C(=O)OC1=C(c2ccc(Cl)cc2Cl)C(=O)OC12CCCCC2` [spirodiclofen, reference compound], the “Kill in % after 1d” value in experiment [1] came to 0%.
For `Cc1cc(C)c(C2=C(OC(=O)CC(C)(C)C)C3(CCCC3)OC2=O)c(C)c1` [spiromesifen, reference compound], in experiment [1], the “Kill in % after 1d” value was 0%. Moreover, in experiment [3] (4 g/ha), the “Kill in % after 2d” value came out at 20% and the “Kill in % after 6d” value was determined as 70%.
Regarding `CN(Cc1cnc(Cl)c(F)c1)C1=CC(=O)OC1` [compound (I-6), 4-{[(6-chloro-5-fluoropyrid-3-yl)methyl](methyl)amino}furan-2(5H)-one], the “Kill in % after 6d” value in experiment [2] (20 g/ha) and in experiment [3] (4 g/ha) was 0% throughout. Moreover, the “Kill in % after 2d” value in experiment [3] (4 g/ha) is 0%.
Regarding spirotetramat [reference compound], the “Kill in % after 6d” value in experiment [1] amounted to 20%; in experiment [4], 0%; in experiment [2] (20 g/ha), 0%. Also, the “Kill in % after 2d” value in experiment [2] (20 g/ha) is given as 0%; in experiment [2] (100 g/ha), 50%; in experiment [3] (4 g/ha), 20%; in experiment [3] (20 g/ha), 70%.
